# From patent US10328066B2, “Pharmaceutical combination comprising the PI3K inhibitor alpelisib and the CDK4/6 inhibitor ribociclib, and the use thereof in the treatment/prevention of cancer” (Novartis AG, priority 2015, dated 2019)
# Columns and labels:
# Format in all cases: cell-based
# COLO-205 = assay: In vitro proliferation (cell count by microscopy), single agents and combination; conditions: Homo sapiens; COLO-205 (BRAF), 72 h treatment; 50% of cell counts relative to DMSO
# Experimental: (§1) COMPOUNDS A, B, and C were dissolved in 100% DMSO (Sigma, Catalog number D2650) at concentrations of 20 mM and stored at −20° C. until use. Compounds were arrayed in drug master plates (Greiner, Catalog number 788876) and serially diluted 3-fold (7 steps) at 2000× concentration.
# (§2) Colorectal cancer cell lines used for this study were obtained, cultured and processed from commercial vendors ATCC, CellBank Australia, DMSZ, ECACC, and HSRRB (Table 1). All cell line media were supplemented with 10% FBS (HyClone, Catalog number SH30071.03). Media for LIM2551 was additionally supplemented with 0.6 μg/mL Insulin (SIGMA, Catalog number 19278), 1 μg/mL Hydrocortisone (SIGMA, Catalog number H0135), and 10 μM 1-Thioglycerol (SIGMA, Catalog number M6145).
# (§3) Cell lines were cultured in 37° C. and 5% CO2 incubator and expanded in T-75 flasks. In all cases cells were thawed from frozen stocks, expanded through ≥1 passage using 1:3 dilutions, counted and assessed for viability using a ViCell counter (Beckman-Coulter) prior to plating. To split and expand cell lines, cells were dislodged from flasks using 0.25% Trypsin-EDTA (GIBCO, Catalog number 25200). All cell lines were determined to be free of mycoplasma contamination as determined by a PCR detection methodology performed at Idexx Radil (Columbia, Mo., USA) and correctly identified by detection of a panel of SNPs.
# (§4) To test the effect of the combination of COMPOUND A, COMPOUND B, and COMPOUND C on cell proliferation cells were plated in black 384-well microplates with clear bottom (Matrix/Thermo Scientific, Catalog number 4332) in 50 μL media per well at cell densities between 500 and 1250 cells/well (Table 1) and allowed to incubate at 37 degrees, 5% CO2 for 24 h. After 24 h one 384-well plate per cell line was prepared for cell counting by microscopy (see below) without receiving treatment (=‘baseline’). The other cell plates were treated by transferring 25 nL of the 2000× compound from drug master plates using an ATS acoustic liquid dispenser (ECD Biosystems) and resulting in a final 1× concentration. COMPOUND A was used over a final concentration range of 13 nM-10 μM, COMPOUND B was used over a final concentration range of 13 nM-10 μM, and COMPOUND C was used over a final concentration range of 27 nM-20 μM (7 1:3 dilution steps). In order to assess the effect of the triple combination all individual COMPOUNDS (A, B, C), all three pair wise combinations (A+B, A+C, B+C), and the triple combination (A+B+C) were tested in the same experiment. Pair wise combinations and the triple combination were tested at a fixed ratio of 1:1 (for drug pairs) and 1:1:1 (for the drug triple) at each dilution resulting in 7 combination conditions per treatment. […] After compound addition 50 nL of 2 mM CellEvent Caspase-3/7 Green Detection Reagent (ThermoFisher, Catalog number C10423) were added to one of the three replicates using the HP D300 Digital Dispenser (Tecan). Caspase 3/7 induction was measured as a proxy for apoptosis induced by the treatments. Cells were treated for 72 h to 96 h depending on their doubling time (Table 1), and Caspase 3/7 activation was measured every 24 h by microscopy using an InCell Analyzer 2000 (GE Healthcare) equipped with a 4× objective and FITC excitation/emission filters. At the end of the treatment cells were prepared for cell counting by microscopy. Cells were fixed and permeabilised for 45 minutes in 4% PFA (Electron Microscopy Sciences, Catalog number 15714), 0.12% TX-100 (Electron Microscopy Sciences, Catalog number 22140) in PBS (Boston Bioproducts, Catalog number BM-220). After washing cells three times with PBS their DNA was stained for 30 minutes with Hoechst 33342 (ThermoFisher, Catalog number H3570) at a final concentration of 4 μg/mL. Cells were washed three times with PBS and then plates were heat-sealed using a PlateLoc (Agilent Technologies) with aluminum seals (Agilent Technologies, Catalog number 06644-001) and stored at 4° C. until imaging. […]
# COLO-320 = assay: as above; conditions: Homo sapiens; COLO-320 (no driver mutation listed), 72 h treatment; 50% of cell counts relative to DMSO
# Experimental: as §1, §2, §3, §4
# DLD-1 = assay: as above; conditions: Homo sapiens; DLD-1 (KRAS, PIK3CA), 72 h treatment; 50% of cell counts relative to DMSO
# Experimental: as §1, §2, §3, §4
# GP2d = assay: as above; conditions: GP2d (KRAS, PIK3CA), 72 h treatment; 50% of cell counts relative to DMSO
# Experimental: as §1, §2, §3, §4
# HCT-116 = assay: as above; conditions: Homo sapiens; HCT-116 (KRAS, PIK3CA), 72 h treatment; 50% of cell counts relative to DMSO
# Experimental: as §1, §2, §3, §4
# HT-29 = assay: as above; conditions: Homo sapiens; HT-29 (BRAF, PIK3CA), 72 h treatment; 50% of cell counts relative to DMSO
# Experimental: as §1, §2, §3, §4
# LIM2551 = assay: as above; conditions: LIM2551 (BRAF, PIK3CA), 72 h treatment; 50% of cell counts relative to DMSO
# Experimental: as §1, §2, §3, §4
# LS-180 = assay: as above; conditions: Homo sapiens, LS180; LS-180 (KRAS, PIK3CA), 72 h treatment; 50% of cell counts relative to DMSO
# Experimental: as §1, §2, §3, §4
# LS411N = assay: as above; conditions: Homo sapiens, LS-411N; LS411N (BRAF), 72 h treatment; 50% of cell counts relative to DMSO
# Experimental: as §1, §2, §3, §4
# LoVo = assay: as above; conditions: Homo sapiens; LoVo (KRAS), 96 h treatment; 50% of cell counts relative to DMSO
# Experimental: as §1, §2, §3, §4
# NCI-H508 = assay: as above; conditions: Homo sapiens; NCI-H508 (PIK3CA), 72 h treatment; 50% of cell counts relative to DMSO
# Experimental: as §1, §2, §3, §4
# OUMS-23 = assay: as above; conditions: OUMS-23 (BRAF), 72 h treatment; 50% of cell counts relative to DMSO
# Experimental: as §1, §2, §3, §4
# RKO = assay: as above; conditions: Homo sapiens; RKO (BRAF, PIK3CA), 72 h treatment; 50% of cell counts relative to DMSO
# Experimental: as §1, §2, §3, §4
# SW480 = assay: as above; conditions: Homo sapiens; SW480 (KRAS), 72 h treatment; 50% of cell counts relative to DMSO
# Experimental: as §1, §2, §3, §4
# SW837 = assay: as above; conditions: Homo sapiens; SW837 (KRAS), 72 h treatment; 50% of cell counts relative to DMSO
# Experimental: as §1, §2, §3, §4
# [1] = system: 15 colorectal cancer cell lines; assay: In vitro proliferation, summary over the cell line panel; conditions: single agents
# Experimental: as §1, §2, §3
# To test the effect of the combination of COMPOUND A, COMPOUND B, and COMPOUND C on cell proliferation cells were plated in black 384-well microplates with clear bottom (Matrix/Thermo Scientific, Catalog number 4332) in 50 μL media per well at cell densities between 500 and 1250 cells/well (Table 1) and allowed to incubate at 37 degrees, 5% CO2 for 24 h. […] Caspase 3/7 induction was measured as a proxy for apoptosis induced by the treatments. Cells were treated for 72 h to 96 h depending on their doubling time (Table 1), and Caspase 3/7 activation was measured every 24 h by microscopy using an InCell Analyzer 2000 (GE Healthcare) equipped with a 4× objective and FITC excitation/emission filters. […]
IC50 (COLO-205) [µM],IC50 (COLO-320) [µM],IC50 (DLD-1) [µM],IC50 (HCT-116) [µM],IC50 (HT-29) [µM],IC50 (LoVo) [µM],IC50 (NCI-H508) [µM],IC50 (SW480) [µM],IC50 (SW837) [µM],IC50 values across the cell lines (summary in words) [1],Structure (SMILES),IC50 (GP2d) [µM],IC50 (LIM2551) [µM],IC50 (LS-180) [µM],IC50 (LS411N) [µM],IC50 (OUMS-23) [µM],IC50 (RKO) [µM]
–,–,–,–,–,–,–,–,–,mostly micromolar IC50 values,"CN(C)C(=O)c1cc2cnc(Nc3ccc(N4CCNCC4)cn3)nc2n1C1CCCC1 [COMPOUND B, 7-Cyclopentyl-2-(5-piperazin-1-yl-pyridin-2-ylamino)-7H-pyrrolo[2,3-d]pyrimidine-6-carboxylic acid dimethylamide]",–,–,–,–,–,–
–,–,–,–,–,–,–,–,–,mostly micromolar IC50 values,"Cc1nc(NC(=O)N2CCC[C@H]2C(N)=O)sc1-c1ccnc(C(C)(C)C(F)(F)F)c1 [COMPOUND A, (S)-Pyrrolidine-1,2-dicarboxylic acid 2-amide 1-({4-methyl-5-[2-(2,2,2-trifluoro-1,1-dimethyl-ethyl)-pyridin-4-yl]-thiazol-2-yl}-amide)]",–,–,–,–,–,–

Structure (SMILES),IC50 (COLO-205) [µM],IC50 (COLO-320) [µM],IC50 (DLD-1) [µM],IC50 (HCT-116) [µM],IC50 (HT-29) [µM],IC50 (LoVo) [µM],IC50 (NCI-H508) [µM],IC50 (SW480) [µM],IC50 (SW837) [µM],IC50 values across the cell lines (summary in words) [1],IC50 (GP2d) [µM],IC50 (LIM2551) [µM],IC50 (LS-180) [µM],IC50 (LS411N) [µM],IC50 (OUMS-23) [µM],IC50 (RKO) [µM]
"O=c1[nH]cc(F)c(=O)[nH]1 [COMPOUND C, 5-fluoro-2,4-(1H,3H) pyrimidinedione]",0.6,2.4,6.6,5.6,7.4,5.6,3.3,> 20,7.7,micromolar IC50s in all but one cell line (SW480),3.2,4.2,14,4.1,10.4,2.1
